# Results from US9102637B2, “Bicyclic thiazole compounds” (CARNA BIOSCIENCES INC., priority 2013, dated 2015).
# pIC50: −log10 of the molar value.
# Tested on: human colon cancer cell line HCT-116
# Experiment: In vitro cell proliferation assay
# Format: cell-based
# Details: HCT-116 cell number, 72 hours of treatment
# Method: In Vitro Cell Proliferation Assay
# The human colon cancer cell line HCT-116 was seeded at 600 cells/well in 96 well-plate (ThermoFisher) using RPMI medium containing 2 mM L-glutamine (Invitrogen) supplemented with 10% FCS (Invitrogen) and 1% penicillin/streptomycin (Sigma) and maintained at 37° C., 5% CO2 and 100% humidity. The following day, old medium was withdrawn and the fresh medium was added. Initial numbers of cells were counted before adding compounds. Then cells were treated in duplicates with compounds (a half-logarithmic serial dilution from 10 μM). Eight untreated control wells were incubated in each plate. After 72 hours of treatment, cells were fixed with 2% paraformaldehyde, and the nucleus were stained with Hoechst 33258 (Invitrogen). The numbers of cells were counted with ArrayScan™ VTI (ThermoFisher Scientific).
row,pIC50,Structure (SMILES)
1,6.00 to 7.00,"NC(=O)c1nc(Nc2ccc3ccccc3c2)sc1NC(=O)c1ccc(F)cc1 [Example 8, 5-(4-fluorobenzamido)-2-(naphthalen-2-ylamino) thiazole-4-carboxamide]"
2,> 7.00,"NC(=O)c1nc(Nc2ccc3ccccc3c2)sc1NC(=O)c1ccc(N2CCOCC2)cc1 [Example 15, 5-(4-morpholinobenzamido)-2-(naphthalen-2-yl-amino)thiazole-4-carboxamide]"
3,6.00 to 7.00,"NC(=O)c1nc(Nc2ccc3ccccc3c2)sc1NC(=O)c1ccc(CN2CCNCC2)cc1 [Example 19, 2-(naphthalen-2-ylamino)-5-[4-(piperazin-1-ylmethyl)benzamido]thiazole-4-carboxamide]"
4,> 7.00,"CN(C)Cc1ccc(C(=O)Nc2sc(Nc3ccc4ccccc4c3)nc2C(N)=O)cc1 [Example 20, 5-{4-[(dimethylamino)methyl]benzamido}-2-(naphthalen-2-ylamino)thiazole-4-carboxamide]"
5,> 7.00,"NC(=O)c1nc(Nc2ccc3ccccc3c2)sc1NC(=O)c1ccc(NC(=O)CO)cc1 [Example 21, 5-[4-(2-hydroxyacetamido)benzamido]-2-(naphthalen-2-ylamino)thiazole-4-carboxamide]"
6,> 7.00,"Cc1ccc(C(=O)Nc2sc(Nc3ccc4ccccc4c3)nc2C(N)=O)s1 [Example 34, 5-(5-methylthiophene-2-carboxamido)-2-(naph-thalen-2-ylamino)thiazole-4-carboxamide]"
7,5.00 to 6.00,"NC(=O)c1nc(Nc2cccc3ncccc23)sc1NC(=O)c1csc(CN2CCOCC2)c1 [Example 49, 5-[5-(morpholinomethyl)thiophene-3-carbox-amido]-2-(quinolin-5-ylamino)thiazole-4-carboxamide]"
8,> 7.00,"CN1CCN(Cc2cc(C(=O)Nc3sc(Nc4ccc5ccccc5c4)nc3C(N)=O)cs2)CC1 [Example 60, 5-{5-[(4-methylpiperazin-1-yl)methyl]thiophene-3-carboxamido}-2-(naphthalen-2-ylamino) thiazole-4-carboxamide]"
9,5.00 to 6.00,NC(=O)c1nc(Nc2ccnc3ccccc23)sc1NC(=O)c1csc(CN2CCOCC2)c1 [Example 67]
10,5.00 to 6.00,"COc1ccc2cc(Nc3nc(C(N)=O)c(NC(=O)c4ccsc4)s3)ccc2c1 [Example 73, 2-[(6-methoxynaphthalen-2-yl)amino]-5-(thio-phene-3-carboxamido)thiazole-4-carboxamide]"
11,> 7.00,"NC(=O)c1nc(Nc2ccc3ccccc3c2)sc1NC(=O)c1ccc(NCCOCCO)cc1 [Example 78, 5-(4-{[2-(2-hydroxyethoxy)ethyl]amino}benz-amido)-2-(naphthalen-2-ylamino)thiazole-4-carbox-amide]"

# Target: human TNIK (N-terminal segment, TNIK_N, residues 1-314) (Homo sapiens (Human), UniProt Q9UKE5)
# Sequence (Q9UKE5 1-314): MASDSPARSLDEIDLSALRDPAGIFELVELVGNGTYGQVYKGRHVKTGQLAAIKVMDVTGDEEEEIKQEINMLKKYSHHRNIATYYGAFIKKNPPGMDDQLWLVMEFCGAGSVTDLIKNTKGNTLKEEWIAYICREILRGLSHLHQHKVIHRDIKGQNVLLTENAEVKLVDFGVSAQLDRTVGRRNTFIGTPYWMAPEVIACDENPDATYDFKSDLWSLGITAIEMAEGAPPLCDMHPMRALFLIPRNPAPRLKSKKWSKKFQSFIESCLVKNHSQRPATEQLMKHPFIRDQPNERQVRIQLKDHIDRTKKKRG
# Experiment: TNIK kinase assay (mobility shift)
# Format: biochemical
# Details: TNIK_N kinase activity, 25 μM ATP, 1 h at room temperature
# Description: Preparation of Recombinant Human TNIK (N-Terminal Segment):
# A cDNA encoding the N-terminal segment (TNIK_N, residues 1-314) containing the kinase domain of human TNIK (NM_015028.1) was amplified from cDNA mixture synthesized from human tissue (Biochain) by PCR using the following primers.
# The cDNA was subcloned into baculovirus transfer vector pFastBac_GSTb that includes protease cleavage site and glutathione S-transferase purification tag (GST-tag). The plasmid was purified and the insertion of the pFastBac_GSTb-TNIK_N was confirmed by DNA sequencing. Then E. coli DH10Bac competent cells were transformed with the plasmid to prepare the recombinant bacmid according to the instructions for the Bac-to-Bac™ baculovirus expression systems (Invitrogen). The Sf9 cells were transfected with the recombinant bacmid containing pFastBac_GSTb-TNIK_N using Cellfectin Reagent (Invitrogen) in SF-9001I serum free media (Invitrogen). The viral supernatant was collected from the medium 72 h after transfection. The virus was amplified three times by infecting actively growing Sf9 or Sf21 cells in Grace's insect media (Invitrogen) supplemented with 10% FCS and an antibiotic-antimycotic reagent (Invitrogen) for 72 h at 27° C. in T-flask or roller bottles. The titer of amplified TNIK_N virus was estimated at 2.36×10^8 pfu/ml by using BacPAK™ Baculovirus Rapid Titer kit (Clontech).
# Log-phase Sf21 cells (2×10^6 cells/ml) in the Grace's insect media were infected with the recombinant baculovirus at MOI of 3.0 and incubated in roller bottles (250 ml media per bottle) for 72 h at 27° C., after which, the cells were collected by centrifugation, and the cell pellet washed with cold PBS and kept at −80° C. until purification. The following purification procedures were carried out at 4° C. The frozen cells were thawed on ice and lysed in lysis buffer (50 mM Tris-HCl, pH 7.5, 150 mM NaCl, 1% Nonidet P-40, 5 mM DTT, 0.5 mM EDTA, 0.5 mM EGTA) supplemented with 1 mM phenylmethansulfonylfluoride, 2 μg/ml leupeptin, 2 μg/ml aprotinin, 1 mM NaF, 100 μM sodium orthovanadate, and 1 μM cantharidin by sonication. The suspended lysate was cleared by centrifugation at 9000g for 20 min and the supernatant was incubated for 1 h with glutathione Sepharose beads (GE Healthcare). The beads were suspended in buffer-H (50 mM Tris-HCl, pH 7.5, 1 M NaCl, 1 mM DTT, 0.5 mM EDTA, 0.5 mM EGTA and 0.05% Brij35) and washed with buffer-H followed by buffer-L (50 mM Tris-HCl, pH 7.5, 150 mM NaCl, 1 mM DTT, 0.5 mM EDTA, 0.5 mM EGTA, 0.05% Brij35) in an Econo-pack column (BIO-RAD). The bound TNIK_N was eluted with elution buffer (50 mM Tris-HCl, pH 8.0, 150 mM NaCl, 1 mM DTT, 10% glycerol, 0.5 mM EDTA, 0.5 mM EGTA and 5 mM reduced glutathione). The eluted fractions were collected and determined the protein concentration by Bradford reagent (BIO-RAD). The TNIKN fractions were pooled and desalted using 10DG column (BIORAD) equilibrated with the storage buffer (50 mM Tris-HCl, pH 7.5, 150 mM NaCl, 1 mM DTT, 10% glycerol, 0.05% Brij35). The purified TNIKN was characterized by electrophoresis using 4-20% polyacrylamide gels and matrix-assisted laser desorption/ionization reflection time-of-flight (MALDI-TOF) mass spectrometry on a Voyager-DE RP MALDI/TOF (Applied Biosystems). TNIK_N was confirmed by the molecular weight and. MASCOT Peptide Mass Fingerprint.
# The kinase assays were conducted in a 20 μl volume using 384-well plates (Greiner). The reaction mixture consists of compound or vehicle (1% DMSO), 0.08 ng/μl TNIK_N, 1 μM FITC-labeled substrate peptides, including E-aminocaproic acid and 7 amino acids (described as SEQ ID NO.3 in “Kinase assay of TEST EXAMPLE 1” of WO 2010/064111(P.31)), 20 mM Hepes, pH 7.5, 0.01% Triton X-100, 5 mM MgCl2, 25 μM ATP and 2 mM DTT. As blank, TNIK N was excluded from the reaction mixture of vehicle (1% DMSO). […]
row,pIC50,Structure (SMILES)
1,8.46,"NC(=O)c1nc(Nc2ccc3ccccc3c2)sc1NC(=O)c1ccc(Cn2cnc(CO)c2)cc1 [Example 246, 5-{4-[(4-(hydroxymethyl)-1H-imidazol-1-yl)methyl]benzamido}-2-(naphthalen-2-ylamino)thiazole-4-carboxamide]"
2,8.21,"COc1ccc2cc(Nc3nc(C(N)=O)c(NC(=O)c4ccc(Cn5ccnc5)cc4)s3)ccc2c1 [Example 248, 5-{4-[(1H-imidazol-1-yl)methyl]benzamido}-2-[(6-methoxynaphthalen-2-yl)amino]thiazole-4-carboxamide]"
3,8.00,"NC(=O)c1nc(Nc2ccc3cc(F)ccc3c2)sc1NC(=O)c1ccc(Cn2ccnc2)cc1 [Example 249, 5-{4-[(1H-imidazol-1-yl)methyl]benzamido}-2-[(6-fluoronaphthalen-2-yl)amino]thiazole-4-carbox-amide]"
4,8.52,"NC(=O)c1nc(Nc2ccc3ncccc3c2)sc1NC(=O)c1ccc(Cn2ccnc2)cc1 [Example 250, 5-{4-[(1H-imidazol-1-yl)methyl]benzamido}-2-(quinolin-6-ylamino)thiazole-4-carboxamide]"
5,8.11,"NC(=O)c1nc(Nc2ccc3ccccc3c2)sc1NC(=O)c1ccc(Cn2ccnc2)s1 [Example 251, 5-{5-[(1H-imidazol-1-yl)methyl]thiophene-2-carboxamido}-2-(naphthalen-2-ylamino)thiazole-4-carboxamide]"
6,7.80,"NC(=O)c1nc(Nc2ccc3ccccc3c2)sc1NC(=O)c1ccc(CN2C(=O)CSC2=O)cc1 [Example 252, 5-{4-[(2,4-dioxothiazolidin-3-yl)methyl]benzamido}-2-(naphthalen-2-ylamino)thiazole-4-carbox-amide]"
7,8.32,"NC(=O)c1nc(Nc2cccc3ncccc23)sc1NC(=O)c1ccc(Cn2ccnc2)cc1 [Example 254, 5-{4-[(1H-imidazol-1-yl)methyl]benzamido}-2-(quinolin-5-ylamino)thiazole-4-carboxamide]"
8,7.58,"NC(=O)c1nc(Nc2ccnc3ccccc23)sc1NC(=O)c1ccc(Cn2ccnc2)cc1 [Example 255, 5-{4-[(1H-imidazol-1-yl)methyl]benzamido}-2-(quinolin-4-ylamino)thiazole-4-carboxamide]"
9,7.73,"Cc1noc(Cc2ccc(C(=O)Nc3sc(Nc4ccc5ccccc5c4)nc3C(N)=O)cc2)n1 [Example 256, 5-{4-[(3-methyl-1,2,4-oxadiazol-5-yl)methyl]benzamido}-2-(naphthalen-2-ylamino)thiazole-4-carboxamide]"
10,8.21,"Cc1nnc(Cc2ccc(C(=O)Nc3sc(Nc4ccc5ccccc5c4)nc3C(N)=O)cc2)o1 [Example 257, 5-{4-[(5-methyl-1,3,4-oxadiazol-2-yl)methyl]benzamido}-2-(naphthalen-2-ylamino)thiazole-4-carboxamide]"
11,8.06,"NC(=O)c1nc(Nc2ccc3ccccc3c2)sc1NC(=O)c1csc(Cn2ccnc2)c1 [Example 258, 5-{5-[(1H-imidazol-1-yl)methyl]thiophene-3-carboxamido}-2-(naphthalen-2-ylamino)thiazole-4-carboxamide]"
12,8.26,"NC(=O)c1nc(Nc2cccc3cccnc23)sc1NC(=O)c1ccc(Cn2ccnc2)cc1 [Example 259, 5-{4-[(1H-imidazol-1-yl)methyl]benzamido}-2-(quinolin-8-ylamino)thiazole-4-carboxamide]"
13,8.28,"NC(=O)c1nc(Nc2ccc3ccccc3c2)sc1NC(=O)c1ccc(Cn2cc(CO)nn2)cc1 [Example 260, 5-{4-[(4-(hydroxymethyl)-1H-1,2,3-triazol-1-yl)methyl]benzamido}-2-(naphthalen-2-ylamino) thiazole-4-carboxamide]"
14,8.08,"NC(=O)c1nc(Nc2ccc3ccc(F)cc3c2)sc1NC(=O)c1ccc(Cn2ccnc2)cc1 [Example 262, 5-{4-[(1H-imidazol-1-yl)methyl]benzamido}-2-[(7-fluoronaphthalen-2-yl)amino]thiazole-4-carbox-amide]"
